This is an account of results in US6689811B2, “Method of using caffeic acid phenethyl ester and analogs thereof as radiation sensitizers” (Wake Forest University, priority 2001, dated 2004).

The test system of experiment [1] is Akt phosphorylation (Akt-Pser473). Kind of experiment: Akt phosphorylation immunoblot in RKO cells treated with CAPE. It is filed as cell-based. As for the experimental part: RKO cells were treated with low serum (LS) (0.1%) for 12 h, or low serum for 12 h followed by replacement of media with 10% serum (LS+S), in the absence (EtOH) or presence of CAPE. Two different exposures (light, dark) of the immunoblot using the anti-phosphoAkt specific antibody are shown.
(§1) 35(9): p. 790; Giri, D. and M. Ittmann, Hum Pathol, 1999. 30(4): p. 419-24; Davies, M. A., et al., Cancer Res, 1999. 59(11): p. 2551-6). Since PTEN is mutated in PC-3 cells, Akt phosphorylation levels are elevated compared to normal prostatic cells, and therefore PC-3 cells are a good model to study the regulation of Akt by CAPE and propolis.
Since Akt phosphorylation levels reflect a balance between active phosphorylation (mainly by PI-3 kinase) and dephosphorylation (by a yet unidentified phosphatase), the decrease in Akt phosphorylation could be an activation of a phosphatase rather than inhibition of a kinase. […] Thus, we performed CAPE treatments in the presence of high (10%) and low (0.1%) serum levels.
On the technique in general: In western blotting, separated proteins are transferred to a membrane and probed.

The subject of experiment [2] is colorectal carcinoma cells. Briefly: Survival fraction of colorectal carcinoma cells, oxaliplatin versus CAPE and oxaliplatin. The following applies: regimen of CAPE and oxaliplatin compared to oxaliplatin alone (FIG. 6). Format: cell-based. The source says:
FIG. 6 is a graph depicting the survival fraction of colorectal carcinoma cells when the cells are given a regimen of oxaliplatin as compared to a regimen of CAPE and oxaliplatin. As stated above, CAPE may be combined with other cancer therapies. One such therapy includes the use of oxaliplatin. Oxaliplatin is a chemotherapy drug, and also an antineoplastic agent, that is generally used in late-stage clinical development for colorectal cancer. Oxaliplatin is a platinum chemotherapy drug, similar to cisplatin and carboplatin. At the center of the drug molecule is an atom of platinum. Oxaliplatin is generally a clear liquid that is given through a drip into a vein (intravenous infusion). The infusion usually takes about 2 hours. Oxaliplatin can be given every 2 weeks or every 3 weeks as a course of treatment.

The test system of a further experiment is RKO cells. Briefly: Clonogenic survival assay with CAPE and ionizing radiation, RKO cells. It is filed as cell-based. As for the experimental part:
(§2) FIGS. 2A-B are graphs illustrating that CAPE sensitizes colorectal carcinoma cells RKO (A) and HT-29 cells (B) to treatments with IR. RKO (A) and HT-29 (B) cells were treated with CAPE (5 μg/ml) for the indicated times, irradiated and plated for clonogenic survival assays. CAPE treatment alone induced 10-20% reduction in clonogenic survival. Results are normalized to account for this reduction. We have also tested the ability of CAPE to sensitize cells to the cytotoxic effects of ionizing radiation. […] The Dose-enhancement ratio (DER) values at survival fraction (SF) 0.1 for pretreatment with CAPE for 24 h were 1.81 for RKO cells and a 1.68 for HT-29 cells. The radiosensitizing effect of CAPE was even more pronounced in vivo.

In the next experiment the test system is HT-29 cells. Kind of experiment: Clonogenic survival assay with CAPE and ionizing radiation, HT-29 cells. It is filed as cell-based. The procedure: as §2
A further experiment concerns HT-29 xenograft tumors. Kind of experiment: HT-29 tumor xenografts on the flanks of nude mice, CAPE with or without IR. It is filed as in vivo. As for the experimental part: FIG. 3 is a photograph showing representative animals where CAPE radiosensitizes HT-29 xenograft tumors to IR. HT-29 cells were grown as tumor xenografts on the flanks of nude mice. When the tumors reached approximately 80 mm^3, one group of mice was treated with 0.5 ml of ethanol (EtOH) (0.1%) while the other group was treated with a single injection of CAPE (100 μg/kg). Twenty-four hours later, the tumors on the left flanks were given a single dose of IR (5 Gy). The animals were returned to their cages and tumor measurements were taken every 7 days for the following 4 weeks. The animal on the left was treated with ethanol (EtOH) (the carrier for CAPE), while the animal on the right was treated with 50 mg/kg CAPE. The tumors on the left side of the animal (right side of the picture) was treated with ionizing radiation (IR) (5Gy). Pictures were taken 4 weeks following IR. FIG. 4 is graphical representation of results from all tumors. Control (N=7), CAPE (N=5), IR (N=6) and CAPE +IR (N=4). Error bars represent ±S.E.M. The different number of tumors measured reflects the failure of some of the tumors to grow during the first week prior to treatment. FIG. 5 is a bar graph illustrating the number of days required for a tumor to triple in volume. […] FIG. 4 illustrates that tumors treated with both CAPE and IR were reduced in size by approximately 90% 4 weeks after treatment.

The test system of experiment [3] is Akt phosphorylation (Akt-Pser473). Kind of experiment: Akt phosphorylation immunoblot in PC-3 cells treated with CAPE. Format: cell-based.
Source text: as §1

The mark [4] stands for this setting: immunoblot with anti-Akt antibody (FIG. 1A).
The mark [5] stands for this setting: increasing doses of CAPE, immunoblot (FIG. 1A).
Setting [6] is: pretreatment with CAPE for 24 h (5 μg/ml), then IR.

In the case of `O=C(/C=C/c1ccc(O)c(O)c1)OCCc1ccccc1` [CAPE, caffeic acid phenethyl ester], the “levels of Akt (anti-Akt antibody)” value in experiment [1] (setting [4]) and in experiment [3] (setting [4]) was “remain unchanged” throughout. Moreover, the “levels of Akt phosphorylation (Akt-Pser473)” value in experiment [1] (setting [5]) and in experiment [3] (setting [5]) was “reduces the levels of Akt phosphorylation” throughout. The “rephosphorylation of Akt when serum was added back” value in experiment [1] (low serum 12 h then 10% serum, in presence of CAPE (FIG. 1B)) was “did not inhibit rephosphorylation of Akt”. For the same compound, in experiment [1] (low serum (0.1%) for 12 h plus CAPE (FIG. 1B)), the “Akt phosphorylation with CAPE in low serum” value is listed as “undetectable levels”. In addition, the “survival fraction of cancerous cells, CAPE plus oxaliplatin” value in experiment [2] is “decrease in the survival fraction”. The “reduction in clonogenic survival by CAPE treatment alone” value in the experiment with RKO cells (CAPE 5 μg/ml, no IR) was 10-20%; with HT-29 cells (CAPE 5 μg/ml, no IR), 10-20%. The “sensitization to IR treatments” value with RKO cells (pretreatment with CAPE for 12 h or 24 h (FIG. 2A)) and in the experiment on HT-29 cells (pretreatment with CAPE for 12 h or 24 h (FIG. 2B)) was “significant sensitization” each time. The “Dose-enhancement ratio (DER) at survival fraction (SF) 0.1” value was found to be 1.81 in the experiment with RKO cells (setting [6]) and 1.68 in the experiment with HT-29 cells (setting [6]). Further, the “number of days required for tumor to triple in volume, CAPE plus IR” value in the experiment on HT-29 xenograft tumors (CAPE combined with IR (FIG. 5)) is “failed to triple in volume”. In addition, the “effect on tumor growth, CAPE alone” value in the experiment on HT-29 xenograft tumors (single dose (50 mg/kg) CAPE, no IR, HT-29 xenografts in nude mice) was “minimal effect on tumor growth”. Further, the “reduction in tumor size, CAPE and IR” value with HT-29 xenograft tumors (single injection of CAPE, IR 5 Gy 24 h later, 4 weeks after treatment (FIG. 4)) is recorded as “approximately 90%”.
